In brackets after ≈: the same amount, converted by molar mass.
Experiments:
[1] = test system: Escherichia coli; assay: Antibacterial activity against Escherichia coli TP1 harboring pBR322 carrying TEM-12 assessed as bacterial density at 1024 ug/ml after 18 hrs; format: functional
[2] = test system: Escherichia coli; assay: Antibacterial activity against Escherichia coli TP1 harboring pBR322 carrying TEM-10 assessed as bacterial density at 512 ug/ml after 18 hrs; format: functional
[3] = test system: Escherichia coli; assay: Antibacterial activity against Escherichia coli TP1 harboring pBR322 carrying TEM-12 by broth microdilution method; format: functional
[4] = test system: Escherichia coli; assay: Antibacterial activity against Escherichia coli TP1 harboring pBR322 carrying TEM-10 by broth microdilution method; format: functional
[5] = test system: Escherichia coli; assay: Antibacterial activity against Escherichia coli TP1 harboring pBR322 carrying TEM-12 assessed as inhibition of bacterial growth at 4096 ug/ml after 18 hrs; format: functional; conditions: TP1, 18 h
[6] = test system: Escherichia coli; assay: Antibacterial activity against Escherichia coli TP1 harboring pBR322 carrying TEM-1 by broth microdilution method; format: functional
[7] = test system: Escherichia coli; assay: Antibacterial activity against Escherichia coli TP1 harboring pBR322 carrying TEM-1 assessed as bacterial density at 2048 ug/ml after 18 hrs relative to control; format: functional
[8] = test system: Escherichia coli; assay: Antibacterial activity against Escherichia coli TP1 harboring pBR322 carrying TEM-1 assessed as inhibition of bacterial growth at 4096 ug/ml after 18 hrs; format: functional; conditions: TP1, 18 h
[9] = test system: Escherichia coli; assay: Antibacterial activity against Escherichia coli TP1 harboring pBR322 carrying TEM-12 assessed as bacterial density at 2048 ug/ml after 18 hrs relative to control; format: functional
[10] = test system: Escherichia coli; assay: Antibacterial activity against Escherichia coli TP1 harboring pBR322 carrying TEM-10 assessed as bacterial density at 2048 ug/ml after 18 hrs relative to control; format: functional
[11] = test system: Escherichia coli; assay: Antibacterial activity against Escherichia coli TP1 harboring pBR322 carrying TEM-1 assessed as bacterial density at 512 ug/ml after 18 hrs; format: functional
[12] = test system: Escherichia coli; assay: Antibacterial activity against Escherichia coli TP1 harboring pBR322 carrying TEM-10 assessed as bacterial density at 1024 ug/ml after 18 hrs; format: functional
[13] = test system: Escherichia coli; assay: Antibacterial activity against Escherichia coli TP1 harboring pBR322 carrying TEM-1 assessed as bacterial density at 1024 ug/ml after 18 hrs; format: functional
[14] = test system: Escherichia coli; assay: Antibacterial activity against Escherichia coli TP1 harboring pBR322 carrying TEM-12 assessed as bacterial density at 512 ug/ml after 18 hrs; format: functional
[15] = test system: Escherichia coli; assay: Antibacterial activity against Escherichia coli TP1 harboring pBR322 carrying TEM-10 assessed as inhibition of bacterial growth at 4096 ug/ml after 18 hrs; format: functional; conditions: TP1, 18 h
[16] = test system: Escherichia coli; assay: Antibacterial activity against Escherichia coli TP1 by broth microdilution method
[17] = test system: Escherichia coli; assay: Antibacterial activity against Escherichia coli TP1 harboring pBR322 carrying TEM-10 assessed as inhibition of bacterial growth at 256 ug/ml after 18 hrs; format: functional; conditions: TP1, 18 h
[18] = test system: Escherichia coli; assay: Antibacterial activity against Escherichia coli TP1 harboring pBR322 carrying TEM-1 assessed as inhibition of bacterial growth at 2 ug/ml after 18 hrs; format: functional; conditions: TP1, 18 h
[19] = test system: Escherichia coli; assay: Antibacterial activity against Escherichia coli TP1 harboring pBR322 carrying TEM-10 assessed as bacterial density up to 64 ug/ml after 18 hrs; format: functional
[20] = test system: Escherichia coli; assay: Antibacterial activity against Escherichia coli TP1 harboring pBR322 carrying TEM-12 assessed as inhibition of bacterial growth at 256 ug/ml after 18 hrs; format: functional; conditions: TP1, 18 h
[21] = test system: Escherichia coli; assay: Antibacterial activity against Escherichia coli TP1 harboring pBR322 carrying TEM-12 assessed as inhibition of bacterial growth at 64 ug/ml after 18 hrs; format: functional; conditions: TP1, 18 h

SMILES: CC1(C)S[C@@H]2[C@H](NC(=O)[C@H](N)c3ccccc3)C(=O)N2[C@H]1C(=O)O [AMPICILLIN]
- Activity [1]: 5%
- Activity [2]: 5%
- MIC [3]: 16400 µg/mL (≈ 46900 µM)
- MIC [4]: 16.4 mg/mL (≈ 46900 µM)
- inhibition at 4096 µg/mL [5]: 36%
- MIC [6]: 16400 µg/mL (≈ 46900 µM)
- Activity [7]: 95%
- inhibition at 4096 µg/mL [8]: 25%
- Activity [9]: 72%
- Activity [10]: 42%
- Activity [11]: 5%
- Activity [12]: 5%
- Activity [13]: 5%
- Activity [14]: 5%
- inhibition at 4096 µg/mL [15]: 78%
- MIC [16]: 32 µg/mL (≈ 91.6 µM)

SMILES: CC(C)(O/N=C(\C(=O)N[C@@H]1C(=O)N2C(C(=O)[O-])=C(C[n+]3ccccc3)CS[C@H]12)c1csc(N)n1)C(=O)O [CEFTAZIDIME]
- inhibition at 256 µg/mL [17]: 17%
- MIC [3]: 512 µg/mL (≈ 937 µM)
- MIC [4]: > 1.02 mg/mL
- MIC [6]: 8 µg/mL (≈ 14.6 µM)
- inhibition at 2 µg/mL [18]: 99%
- Activity [19]: 100%
- inhibition at 256 µg/mL [20]: 88%
- MIC [16]: 1 µg/mL (≈ 1.83 µM)
- inhibition at 64 µg/mL [21]: 64%
